Bridge positions count the residues as written; N and C are the ends. Square brackets hold non-standard residues; d marks the D form. Peptide text beside a SMILES is read from it. * marks the point of attachment. DOTA = O=C(O)CN1CCN(CC(=O)O)CCN(CC(=O)*)CCN(CC(=O)O)CC1; 1Nal = N[C@@H](Cc1cccc2ccccc12)C(=O)O; 2Nal = N[C@@H](Cc1ccc2ccccc2c1)C(=O)O; Ala(4-THP) = N[C@@H](CC1CCOCC1)C(=O)O; Gly(4-THP) = N[C@H](C(=O)O)C1CCOCC1; 3Pal = N[C@@H](Cc1cccnc1)C(=O)O; 4Pal = N[C@@H](Cc1ccncc1)C(=O)O; Chg = N[C@H](C(=O)O)C1CCCCC1; Tle = CC(C)(C)[C@H](N)C(=O)O; αMeP = C[C@@]1(C(=O)O)CCCN1
Each molecule was assayed against T1, human DLL3 (Homo sapiens, UniProt Q9NYJ7) (assay: Affinity determination by Surface Plasmon Resonance (SPR), Biacore, 1:1 binding model). Settings: biotinylated human DLL3 on streptavidin chip, 25° C.; NB = nonbinding.
T1 construct: biotin (biotinylated)
T1 sequence (Q9NYJ7 27-618): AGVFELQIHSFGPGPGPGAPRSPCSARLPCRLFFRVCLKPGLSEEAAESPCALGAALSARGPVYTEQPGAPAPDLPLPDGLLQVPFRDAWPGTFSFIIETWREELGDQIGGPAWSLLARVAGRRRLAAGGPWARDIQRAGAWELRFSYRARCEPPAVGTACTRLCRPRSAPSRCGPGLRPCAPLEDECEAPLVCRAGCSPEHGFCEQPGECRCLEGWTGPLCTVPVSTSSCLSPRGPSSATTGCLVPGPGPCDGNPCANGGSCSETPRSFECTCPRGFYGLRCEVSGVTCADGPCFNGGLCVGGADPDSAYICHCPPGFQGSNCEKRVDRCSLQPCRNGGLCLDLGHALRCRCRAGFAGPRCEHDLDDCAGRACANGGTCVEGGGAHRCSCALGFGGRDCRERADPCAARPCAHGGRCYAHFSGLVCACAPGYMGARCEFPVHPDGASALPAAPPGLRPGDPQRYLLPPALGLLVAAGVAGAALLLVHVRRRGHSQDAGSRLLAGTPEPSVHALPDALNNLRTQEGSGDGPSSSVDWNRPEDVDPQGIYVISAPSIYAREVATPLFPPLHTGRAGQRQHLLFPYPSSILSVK
Outline: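 SPR with biotinylated human DLL3 captured on a streptavidin chip, with a reference surface subtracted. Samples were injected at several concentrations at 100 μL/min in phosphate buffer with 137 mM NaCl, 2.7 mM KCl, 0.05% P20 and 2% DMSO. Kinetic and affinity constants came from a 1:1 binding fit.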

Kd	Compound
0.95 nM	CC(=O)N[C@H](C(=O)N[C@@H](CO)C(=O)N[C@@H](CC(=O)O)C(=O)N[C@H]1CSSC[C@@H](C(=O)N2CCC[C@@]2(C)C(=O)N[C@@H](Cc2ccccc2)C(=O)N[C@@H](CC(=O)O)C(=O)N[C@H](CCCCNC(=O)CN2CCN(CC(=O)O)CCN(CC(=O)O)CCN(CC(=O)O)CC2)C(N)=O)NC(=O)[C@H](CC(N)=O)NC(=O)[C@H](Cc2ccc3ccccc3c2)NC(=O)[C@H](CCC(N)=O)NC(=O)[C@H](C(C)(C)C)NC(=O)[C@H](Cc2cccc3ccccc23)NC1=O)C1CCCCC1 [compound 131, Ac-(Chg)-S-D-C(3)-(1Nal)-(D-Leu)-Q-(2Nal)-N-C(3)-(aMe-P)-F-D-D-Lys(DOTA)-CONH2] (Ac-[Chg]SDC[1Nal][Tle]Q[2Nal]NC[αMeP]FD[dK](DOTA)-NH2; disulfide 4-10)
0.21 nM	CC(=O)N[C@H](C(=O)N[C@@H](CO)C(=O)N[C@@H](CC(=O)O)C(=O)N[C@H]1CSSC[C@@H](C(=O)N2CCC[C@@]2(C)C(=O)N[C@@H](Cc2ccccc2)C(=O)N[C@@H](CC(=O)O)C(=O)N[C@H](CCCCNC(=O)CN2CCN(CC(=O)O)CCN(CC(=O)O)CCN(CC(=O)O)CC2)C(N)=O)NC(=O)[C@H](CC(N)=O)NC(=O)[C@H](Cc2c[nH]c3ccccc23)NC(=O)[C@H](CC2CCOCC2)NC(=O)[C@H](CC(C)C)NC(=O)[C@H](Cc2cccc3ccccc23)NC1=O)C1CCCCC1 [compound 132, Ac-(Chg)-S-D-C(3)-(1Nal)-L-(THPA)-W-N-C(3)-(aMe-P)-F-D-[D-Lys(DOTA)]-NH2] (Ac-[Chg]SDC[1Nal]L[Ala(4-THP)]WNC[αMeP]FD[dK](DOTA)-NH2; disulfide 4-10)
> 30 nM	CC(=O)N[C@H](C(=O)N[C@@H](CO)C(=O)N[C@@H](CC(=O)O)C(=O)N[C@H]1CSSC[C@@H](C(=O)N2CCC[C@@]2(C)C(=O)N[C@@H](Cc2ccccc2)C(=O)N[C@@H](CC(=O)O)C(=O)N[C@H](CCCCNC(=O)CN2CCN(CC(=O)O)CCN(CC(=O)O)CCN(CC(=O)O)CC2)C(N)=O)NC(=O)[C@H](CC(N)=O)NC(=O)[C@H](Cc2c[nH]c3ccccc23)NC(=O)[C@H](C2CCOCC2)NC(=O)[C@H](CC(C)C)NC(=O)[C@H](Cc2cccc3ccccc23)NC1=O)C1CCCCC1 [compound 133, Ac-(Chg)-S-D-C(3)-(1Nal)-L-(THPG)-W-N-C(3)-(aMe-P)-F-D-[D-Lys(DOTA)]-NH2] (Ac-[Chg]SDC[1Nal]L[Gly(4-THP)]WNC[αMeP]FD[dK](DOTA)-NH2; disulfide 4-10)
3.52 nM	CC(=O)N[C@H](C(=O)N[C@@H](CO)C(=O)N[C@@H](CC(=O)O)C(=O)N[C@H]1CSSC[C@@H](C(=O)N2CCC[C@@]2(C)C(=O)N[C@@H](Cc2ccccc2)C(=O)N[C@@H](CC(=O)O)C(=O)N[C@H](CCCCNC(=O)CN2CCN(CC(=O)O)CCN(CC(=O)O)CCN(CC(=O)O)CC2)C(N)=O)NC(=O)[C@H](CC2CCOCC2)NC(=O)[C@H](Cc2c[nH]c3ccccc23)NC(=O)[C@H](CCC(N)=O)NC(=O)[C@H](CC(C)C)NC(=O)[C@H](Cc2cccc3ccccc23)NC1=O)C1CCCCC1 [compound 134, Ac-(Chg)-S-D-C(3)-(1Nal)-L-Q-W-(THPA)-C(3)-(aMe-P)-F-D-[D-Lys(DOTA)]-NH2] (Ac-[Chg]SDC[1Nal]LQW[Ala(4-THP)]C[αMeP]FD[dK](DOTA)-NH2; disulfide 4-10)
> 30 nM	CC(=O)N[C@H](C(=O)N[C@@H](CO)C(=O)N[C@@H](CC(=O)O)C(=O)N[C@H]1CSSC[C@@H](C(=O)N2CCC[C@@]2(C)C(=O)N[C@@H](Cc2ccccc2)C(=O)N[C@@H](CC(=O)O)C(=O)N[C@H](CCCCNC(=O)CN2CCN(CC(=O)O)CCN(CC(=O)O)CCN(CC(=O)O)CC2)C(N)=O)NC(=O)[C@H](C2CCOCC2)NC(=O)[C@H](Cc2c[nH]c3ccccc23)NC(=O)[C@H](CCC(N)=O)NC(=O)[C@H](CC(C)C)NC(=O)[C@H](Cc2cccc3ccccc23)NC1=O)C1CCCCC1 [compound 135, Ac-(Chg)-S-D-C(3)-(1Nal)-L-Q-W-(THPG)-C(3)-(aMe-P)-F-D-[D-Lys(DOTA)]-NH2] (Ac-[Chg]SDC[1Nal]LQW[Gly(4-THP)]C[αMeP]FD[dK](DOTA)-NH2; disulfide 4-10)
21.7 nM	CC(=O)N[C@H](C(=O)N[C@@H](CO)C(=O)N[C@@H](CC(=O)O)C(=O)N[C@H]1CSSC[C@@H](C(=O)N2CCC[C@@]2(C)C(=O)N[C@@H](Cc2cccnc2)C(=O)N[C@@H](CC(=O)O)C(=O)N[C@H](CCCCNC(=O)CN2CCN(CC(=O)O)CCN(CC(=O)O)CCN(CC(=O)O)CC2)C(N)=O)NC(=O)[C@H](CC(N)=O)NC(=O)[C@H](Cc2c[nH]c3ccccc23)NC(=O)[C@H](CCC(N)=O)NC(=O)[C@H](CC(C)C)NC(=O)[C@H](Cc2cccc3ccccc23)NC1=O)C1CCCCC1 [compound 136, Ac-(Chg)-S-D-C(3)-(1Nal)-L-Q-W-N-C(3)-(aMe-P)-(3Pya)-D-[D-Lys(DOTA)]-NH2] (Ac-[Chg]SDC[1Nal]LQWNC[αMeP][3Pal]D[dK](DOTA)-NH2; disulfide 4-10)
> 30 nM	CC(=O)N[C@H](C(=O)N[C@@H](CO)C(=O)N[C@@H](CC(=O)O)C(=O)N[C@H]1CSSC[C@@H](C(=O)N2CCC[C@@]2(C)C(=O)N[C@@H](Cc2ccncc2)C(=O)N[C@@H](CC(=O)O)C(=O)N[C@H](CCCCNC(=O)CN2CCN(CC(=O)O)CCN(CC(=O)O)CCN(CC(=O)O)CC2)C(N)=O)NC(=O)[C@H](CC(N)=O)NC(=O)[C@H](Cc2c[nH]c3ccccc23)NC(=O)[C@H](CCC(N)=O)NC(=O)[C@H](CC(C)C)NC(=O)[C@H](Cc2cccc3ccccc23)NC1=O)C1CCCCC1 [compound 137, Ac-(Chg)-S-D-C(3)-(1Nal)-L-Q-W-N-C(3)-(aMe-P)-(4Pya)-D-[D-Lys(DOTA)]-NH2] (Ac-[Chg]SDC[1Nal]LQWNC[αMeP][4Pal]D[dK](DOTA)-NH2; disulfide 4-10)
1.05 nM	CC(=O)N[C@H](CO)C(=O)N[C@@H](CC(=O)O)C(=O)N[C@H]1CSSC[C@@H](C(=O)N2CCC[C@@]2(C)C(=O)N[C@@H](Cc2ccccc2)C(=O)N[C@@H](CC(=O)O)C(=O)N[C@H](CCCCNC(=O)CN2CCN(CC(=O)O)CCN(CC(=O)O)CCN(CC(=O)O)CC2)C(N)=O)NC(=O)[C@H](CC(N)=O)NC(=O)[C@H](Cc2c[nH]c3ccccc23)NC(=O)[C@H](CCC(N)=O)NC(=O)[C@H](C2CCCCC2)NC(=O)[C@H](Cc2cccc3ccccc23)NC1=O [compound 138, Ac-(D-Ser)-D-C(3)-(1Nal)-(Chg)-Q-W-N-C(3)-(aMe-P)-F-D-D-Lys(DOTA)-CONH2] (Ac-[dS]DC[1Nal][Chg]QWNC[αMeP]FD[dK](DOTA)-NH2; disulfide 3-9)
> 30 nM	CC(=O)N[C@H](CO)C(=O)N[C@@H](CC(=O)O)C(=O)N[C@H]1CSSC[C@@H](C(=O)N2CCC[C@@]2(C)C(=O)N[C@@H](Cc2ccccc2)C(=O)N[C@@H](CC(=O)O)C(=O)N[C@H](CCCCNC(=O)CN2CCN(CC(=O)O)CCN(CC(=O)O)CCN(CC(=O)O)CC2)C(N)=O)NC(=O)[C@H](CC(N)=O)NC(=O)[C@H](Cc2c[nH]c3ccccc23)NC(=O)[C@H](CCC(N)=O)NC(=O)[C@@H](CC(C)C)NC(=O)[C@H](Cc2cccc3ccccc23)NC1=O [compound 139, Ac-(D-Ser)-D-C(3)-(1Nal)-(D-Leu)-Q-W-N-C(3)-(aMe-P)-F-D-D-Lys(DOTA)-CONH2] (Ac-[dS]DC[1Nal][dL]QWNC[αMeP]FD[dK](DOTA)-NH2; disulfide 3-9)
